Reference: patent US10626438B2, “Fluorescent substrates for determining lysine modifying enzyme activity” (The Broad Institute, Inc., priority 2011, dated 2020)

Target: HDAC1 (Homo sapiens, UniProt Q13547)
Conditions: for T(½): Broad Substrate A; for mechanism of inhibition (on/off kinetics): progress curves monitored for 4 hours and reversibility by 100-fold dilution

Sequence of HDAC1 (Q13547 whole entry): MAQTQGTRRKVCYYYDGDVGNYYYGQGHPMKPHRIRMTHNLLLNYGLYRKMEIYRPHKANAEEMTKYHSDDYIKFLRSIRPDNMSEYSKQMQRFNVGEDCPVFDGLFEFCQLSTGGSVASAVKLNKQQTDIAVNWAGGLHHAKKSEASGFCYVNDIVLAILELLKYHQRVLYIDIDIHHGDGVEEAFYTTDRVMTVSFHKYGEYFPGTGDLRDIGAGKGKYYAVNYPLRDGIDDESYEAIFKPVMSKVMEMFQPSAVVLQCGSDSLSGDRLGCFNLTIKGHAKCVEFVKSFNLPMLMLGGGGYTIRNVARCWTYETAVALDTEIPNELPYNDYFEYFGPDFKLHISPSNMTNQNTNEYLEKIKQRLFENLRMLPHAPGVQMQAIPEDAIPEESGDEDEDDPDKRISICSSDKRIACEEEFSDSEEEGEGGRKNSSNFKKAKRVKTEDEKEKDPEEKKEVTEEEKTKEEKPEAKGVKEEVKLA

CC(=O)Nc1ccc(C(=O)Nc2ccccc2N)cc1 [CI-994]
T(½): 74 min
mechanism of inhibition (on/off kinetics): slow on/slow off inhibitor

O=C(CCCCCCC(=O)Nc1ccccc1)NO [SAHA]
T(½): <4 min
mechanism of inhibition (on/off kinetics): fast on/fast off inhibitor
